Patent publication US9700531B2, “Composition comprising metformin as active ingredient for preventing or treating inflammatory bowel disease” (CATHOLIC UNIVERSITY INDUSTRY ACADEMIC COOPERATION FOUNDATION, priority 2012, dated 2017)
Entries after “also recorded” stand apart in the source; their conditions may differ.

Legend:
[1] = system: spleen cells of a normal mouse group; test: ROS measurement by FACs (ROS antibody, FITC) in spleen cells of a normal mouse group; format: cell-based; conditions: cells collected at 3 days after treatment
Method: The oxidative stress was known to be an important factor involved in the inflammatory responses of various autoimmune diseases. […] Enbrel®) composite and at 3 days later, each cell was collected and reacted with an ROS antibody with a FITC wavelength range, and then, was measured using fluorescence activated cell sorting (FACs).

[2] = system: inflammatory bowel disease-induced animal model; test: Inflammatory bowel disease animal model (3.5% DSS water for a week): weight, survival, thickness of small intestine, length of large intestine; format: in vivo, C57BL/6(H-2kb) mouse; conditions: for thickness of the intestine: Metformin 5 mg oral, Etanercept 100 μg subcutaneous or composite, at 3 days after induction
From the text: The inventors of the present invention first prepared the animal model with an inflammatory bowel disease in order to identify whether the Metformin of the present invention can treat an inflammatory bowel disease. For an experimental animal, a C57BL/6(H-2kb) mouse was used, and to prepare the animal model with an inflammatory bowel disease, the mouse taken with 3.5% dextran sulfate sodium (DSS) water for a week to prepare an animal model with an inflammatory bowel disease.
The inventors divided the experimental animals into an inflammatory bowel disease-induced animal model group, and an inflammatory bowel disease-induced animal model group, which was administered with Metformin, and for the group being administered with Metformin, 5 mg of Metformin was orally administered at 3 days after the disease was induced.

[3] = system: spleen cells of a normal mouse group
[4] = system: spleen cells of a normal mouse group; test: ELISA of cytokines in culture media of treated cells of the normal mouse group; format: cell-based; conditions: culture media collected at 3 days after treatment
From the text: The inventors treated Metformin and the Metformin-Etanercept (Product Name: Enbrel®) composite to the cells of the normal mouse group to identify the effects of Etanercept (Product Name: Enbrel®) and Metformin on the expression of cytokine.

[5] = system: colorectal tissues of the group with an inflammatory bowel disease; test: Expression of inflammatory cytokines in colorectal tissues and cells of the large intestine of mouse injected with Metformin; format: in vivo
From the text: FIGS. 6A-6B illustrate the results of measuring the inflammatory cytokine regulations caused by Metformin in the colorectal tissues and colorectal cells of the group with an inflammatory bowel disease.
Furthermore, the expressions of the inflammatory cytokine IL-10 and TGF-b were increased by Metformin.

[6] = system: lymph node of the group with an inflammatory bowel disease; test: Expression of inflammatory cytokines in lymph node of mouse injected with Metformin; format: in vivo
From the text: FIG. 7 illustrates the result of measuring the inflammatory cytokine regulations caused by Metformin in the lymph node tissues and cells of the group with an inflammatory bowel disease.

[7] = system: cell line of human large intestine; test: Gene expression of inflammatory cytokines in cell line of human large intestine treated with Metformin; format: cell-based
Method: The gene expressions of the inflammatory cytokines TNF-α, IL-8, and IL-1b were investigated after the cell line of human large intestine was treated with Metformin.

[8] = system: Th17 cell and regulatory Treg cell in the spleen; test: Th17 cells and regulatory Treg cells in spleen of mouse injected with Metformin (confocal assay); format: in vivo
[9] = system: STAT3, mTOR, AMPK, STAT5 in spleen tissue; test: Signaling molecules in spleen of mouse administered with Metformin (tissue confocal, spleen cell proteins); format: in vivo
[10] = 5 mg Metformin orally 3 days after induction, versus control group
[11] = 5 mg Metformin orally, the words describe the control group relative to the Metformin group

## Etanercept
[1]
  ROS inhibition: no ROS inhibitory effect; also recorded: no effects of ROS inhibition
[2]; versus control group
  thickness of the intestine: thicker
[3]
  toxic effects (MTT assay): no toxic effects
[4]
  expression of IL-17 (ELISA): effective in inhibiting

## CN(C)C(=N)NC(=N)N [Metformin]
[5]
  expression of IL-6 in colorectal tissues (histological findings): considerable decrease
  expression of IL-8 in colorectal tissues (histological findings): considerable decrease
  expression of IL-17 in colorectal tissues (histological findings): considerable decrease
  expression of TNF-α in colorectal tissues (histological findings): considerable decrease
  gene expressions of the inflammatory cytokines in the cells of the large intestine: considerably inhibited
[5]; large intestine
  Foxp3 (regulatory T cell factor): increased
  expression of IL-10: increased
  expression of TGF-b: increased
[6]
  gene expression of IL-6 in lymph node: considerable decreases
  gene expression of IL-17 in lymph node: considerable decreases
  gene expression of IL-21 in lymph node: considerable decreases
  gene expression of TNF-α in lymph node: considerable decreases
[1]
  ROS inhibition: no ROS inhibitory effect; also recorded: no effects of ROS inhibition
[7]
  gene expression of IL-1b: inhibited in a Metformin concentration dependent manner
  gene expression of IL-8: inhibited in a Metformin concentration dependent manner
  gene expression of TNF-α: inhibited in a Metformin concentration dependent manner
[8]
  expressions of Th17 cells in spleen: considerably inhibited
  regulatory T cells that express Foxp3 in spleen: significantly increased
[2]; [10]
  survival rates (in words): higher survival rates
  weights (in words): increase in weights
[2]; 5 mg Metformin orally at 3 days after disease induction, control group had low survival rate
  survival rate: 100%
[2]; [11]
  length of large intestine (histological findings): shortened length was observed
  thickness of small intestine (histological findings): narrower than the group treated with Metformin
[2]; versus control group
  thickness of the intestine: thicker
[3]
  toxic effects (MTT assay): no toxic effects
[9]; spleen cell proteins
  activated AMPK: increased
  phosphorylated STAT3, 705, and 727: significantly inhibited
[9]; tissue confocal
  activity of STA3 in spleen cells: considerably inhibited
  activity of mTOR in spleen cells: considerably inhibited
[9]; tissue confocal, spleen
  cells with the activated AMPK: increased
  cells with the activated STAT5: increased
[4]
  expression of IL-17 (ELISA): effective in inhibiting
